Experimental data as given in patent US20110212977A1, “P70 S6 KINASE INHIBITOR AND MTOR INHIBITOR COMBINATION THERAPY” (ELI LILLY AND COMPANY, priority 2008, published 2011).

Test system: U87MG human glioblastoma cells
Test: Determination of In Vivo Efficacy: U87MG human glioblastoma xenograft tumor volume;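 further: subcutaneous flank xenografts in female athymic nude mice, tumor volume measured twice weekly, log volumes compared with the combined-vehicle control group by repeated measures ANOVA at each time point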
Conditions: for Tumor volume Mean / Signif. (difference in tumor volume relative to the vehicle group): 3 mg/kg of each agent orally once daily; for Tumor volume Mean: U87MG xenograft in nude mice
Procedure: The vehicle group is given the 2 vehicles (NaCMC Tween 80 and 35% PEG300/10% HPBCD/10% PS80 in H2O) in combination (0.1 mL of each). Treatment is continued for 23 days. Tumor volumes are measured using standard technique twice weekly and reported. Tumor size and body weight are recorded and analyzed bi-weekly. Tumor volume is estimated by using the formula: v=l×w^2×0.536 where l=larger of measured diameter and w=smaller of perpendicular diameter. The analysis uses SAS software version 8.2 (SAS Institutes Inc, Cary, N.C.) to analyze the log tumor volume data using a repeated measures ANOVA model with a spatial power covariance structure. For each time point taken, treatment groups are compared to the vehicle control group. Tumor volumes are given as means±standard errors for each treatment group determined from a repeated measures ANOVA on each group.
The data in the column headed Signif. indicates whether the difference relative to the vehicle group is statistically significant: NS=Not Significant (p>0.05); *=0.01<p≦0.05; **=0.001<<p≦0.01; ***=p≦0.001.

Structure (SMILES) | Tumor volume Mean (Day 7) | Tumor volume Mean (Day 10) | Tumor volume Mean (Day 13) | Tumor volume Mean (Day 16) | Tumor volume Mean (Day 20) | Tumor volume Mean (Day 23) | Tumor volume Mean (Day 27) | Tumor volume Mean (Day 30) | Tumor volume Mean (Day 34) | Statistical difference from the vehicle group (in words) (whole study (throughout), 3 mg/kg orally once daily) | Signif. (difference in tumor volume relative to the vehicle group) (Day 7) | Signif. (difference in tumor volume relative to the vehicle group) (Day 10) | Signif. (difference in tumor volume relative to the vehicle group) (Day 13) | Signif. (difference in tumor volume relative to the vehicle group) (Day 16) | Signif. (difference in tumor volume relative to the vehicle group) (Day 20) | Signif. (difference in tumor volume relative to the vehicle group) (Day 23) | Signif. (difference in tumor volume relative to the vehicle group) (Day 27) | Signif. (difference in tumor volume relative to the vehicle group) (Day 30) | Signif. (difference in tumor volume relative to the vehicle group) (Day 34)
CO[C@H]1CC2CC[C@@H](C)[C@@](O)(O2)C(=O)C(=O)N2CCCC[C@H]2C(=O)O[C@H]([C@H](C)C[C@@H]2CC[C@@H](O)[C@H](OC)C2)CC(=O)[C@H](C)/C=C(\C)[C@@H](O)[C@@H](OC)C(=O)[C@H](C)C[C@H](C)/C=C/C=C/C=C/1C [Rapamycin, rapamycin, reference compound] | 43.1 | 65.6 | 121.9 | 220.4 | 311.5 | 606.0 | 879.7 | 1160.8 | 1429.5 | not significantly different | – | – | – | – | – | – | – | – | –
Cn1cc(-c2ccc(F)c(C(F)(F)F)c2)nc1C1CCN(c2ncnc3[nH]ncc23)CC1 [p70 S6 Kinase Inhibitor] | 43.8 | 79.6 | 118.7 | 159.0 | 233.6 | 539.1 | 928.6 | 1158.5 | 1256.6 | – | NS (NS=Not Significant (p>0.05)) | NS (NS=Not Significant (p>0.05)) | NS (NS=Not Significant (p>0.05)) | * (*=0.01<p≦0.05) | * (*=0.01<p≦0.05) | NS (NS=Not Significant (p>0.05)) | NS (NS=Not Significant (p>0.05)) | NS (NS=Not Significant (p>0.05)) | NS (NS=Not Significant (p>0.05))
